Test results reported in patent publication US11208412B2 (DAEGU-GYEONGBUK MEDICAL INNOVATION FOUNDATION, priority 2017, dated 2021).
pIC50: −log10 of the molar value.

biological target: T1, recombinant LRRK2 kinase (Homo sapiens, UniProt Q5S007); experiment: LRRK2 kinase inhibition (Kinase-Glo luminescence); type: biochemical; conditions: IC50 grade; 25 μmol/L ATP, LRRKtide, 30° C. 2 hours; read-out: Enzyme activity LRRK2
T1 construct: purchased Signal Chem, Richmond, BC, Canada
Method: Upon completion of the reaction, an equal amount of Kinase-Glo (Promega, Madison, Wis.) solution was added thereto, followed by reaction for 40 minutes. A detection solution was added thereto, followed by further reaction at room temperature for 30 minutes. Then, IC50 of kinase was calculated by measuring the amount of luciferase using a microplate ELISA reader (Bio-Tek).

T1 sequence (Q5S007 whole entry): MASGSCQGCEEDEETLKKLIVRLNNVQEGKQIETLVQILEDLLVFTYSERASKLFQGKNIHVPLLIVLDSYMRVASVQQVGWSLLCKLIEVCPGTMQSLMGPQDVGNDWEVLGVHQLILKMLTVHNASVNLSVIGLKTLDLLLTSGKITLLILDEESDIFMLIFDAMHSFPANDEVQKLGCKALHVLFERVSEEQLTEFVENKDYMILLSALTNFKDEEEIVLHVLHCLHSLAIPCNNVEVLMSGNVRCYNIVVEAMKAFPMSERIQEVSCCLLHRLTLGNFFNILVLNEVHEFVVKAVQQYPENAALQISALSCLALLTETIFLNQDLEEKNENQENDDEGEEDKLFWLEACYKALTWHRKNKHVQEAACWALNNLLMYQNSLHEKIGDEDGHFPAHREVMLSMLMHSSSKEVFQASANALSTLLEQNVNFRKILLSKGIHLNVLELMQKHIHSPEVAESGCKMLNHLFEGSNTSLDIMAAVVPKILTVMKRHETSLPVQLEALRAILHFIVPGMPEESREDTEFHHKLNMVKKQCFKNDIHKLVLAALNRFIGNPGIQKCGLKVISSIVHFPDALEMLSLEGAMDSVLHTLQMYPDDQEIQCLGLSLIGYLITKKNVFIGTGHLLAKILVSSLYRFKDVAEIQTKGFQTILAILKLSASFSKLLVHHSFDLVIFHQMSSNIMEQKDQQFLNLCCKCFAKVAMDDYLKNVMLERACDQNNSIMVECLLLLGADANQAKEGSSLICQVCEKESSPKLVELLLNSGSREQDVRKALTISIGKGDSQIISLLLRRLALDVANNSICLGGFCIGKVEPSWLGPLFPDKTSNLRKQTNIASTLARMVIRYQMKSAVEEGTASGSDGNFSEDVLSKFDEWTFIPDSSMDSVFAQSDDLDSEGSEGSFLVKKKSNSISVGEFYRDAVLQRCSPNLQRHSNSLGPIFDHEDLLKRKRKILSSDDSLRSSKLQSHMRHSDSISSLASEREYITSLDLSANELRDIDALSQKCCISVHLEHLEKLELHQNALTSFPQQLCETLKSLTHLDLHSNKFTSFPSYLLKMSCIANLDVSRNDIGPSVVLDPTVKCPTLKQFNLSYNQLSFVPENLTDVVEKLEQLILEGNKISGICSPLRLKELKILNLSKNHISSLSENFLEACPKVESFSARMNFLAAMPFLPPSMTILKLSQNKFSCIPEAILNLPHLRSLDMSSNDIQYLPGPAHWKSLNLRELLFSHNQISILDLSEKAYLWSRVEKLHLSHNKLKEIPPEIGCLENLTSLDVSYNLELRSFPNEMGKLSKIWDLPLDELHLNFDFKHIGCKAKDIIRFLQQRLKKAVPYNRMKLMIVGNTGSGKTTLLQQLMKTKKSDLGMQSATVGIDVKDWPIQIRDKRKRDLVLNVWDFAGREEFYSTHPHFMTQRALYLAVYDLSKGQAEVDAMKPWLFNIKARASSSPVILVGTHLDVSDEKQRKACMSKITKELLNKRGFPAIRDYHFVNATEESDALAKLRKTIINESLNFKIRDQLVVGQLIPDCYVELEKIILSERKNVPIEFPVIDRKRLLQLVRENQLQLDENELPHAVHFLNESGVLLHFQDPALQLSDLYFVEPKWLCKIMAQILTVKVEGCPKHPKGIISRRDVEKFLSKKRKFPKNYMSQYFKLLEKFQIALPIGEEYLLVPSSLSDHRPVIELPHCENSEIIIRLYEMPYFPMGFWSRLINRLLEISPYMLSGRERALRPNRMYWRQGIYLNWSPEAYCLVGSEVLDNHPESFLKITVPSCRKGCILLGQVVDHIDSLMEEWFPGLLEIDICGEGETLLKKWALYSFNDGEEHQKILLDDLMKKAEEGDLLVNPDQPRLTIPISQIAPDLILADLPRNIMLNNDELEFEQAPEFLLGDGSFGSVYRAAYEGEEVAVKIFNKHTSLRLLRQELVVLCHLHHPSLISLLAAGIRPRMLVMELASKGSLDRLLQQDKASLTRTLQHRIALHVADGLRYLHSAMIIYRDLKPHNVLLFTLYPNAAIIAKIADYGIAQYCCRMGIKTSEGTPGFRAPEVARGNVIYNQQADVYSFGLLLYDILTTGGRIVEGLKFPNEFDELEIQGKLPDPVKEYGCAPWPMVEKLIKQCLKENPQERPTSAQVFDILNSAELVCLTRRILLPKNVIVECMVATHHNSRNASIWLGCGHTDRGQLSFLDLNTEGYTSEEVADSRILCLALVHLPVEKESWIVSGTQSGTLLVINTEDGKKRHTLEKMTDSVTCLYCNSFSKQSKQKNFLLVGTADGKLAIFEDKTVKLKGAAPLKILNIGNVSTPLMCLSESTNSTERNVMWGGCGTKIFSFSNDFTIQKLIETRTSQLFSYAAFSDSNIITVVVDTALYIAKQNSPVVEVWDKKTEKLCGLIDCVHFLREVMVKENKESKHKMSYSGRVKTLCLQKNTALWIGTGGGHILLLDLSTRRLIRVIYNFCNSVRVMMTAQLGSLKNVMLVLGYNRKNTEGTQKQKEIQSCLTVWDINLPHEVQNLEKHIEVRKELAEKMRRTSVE

SMILES	pIC50
CCNc1nc(Nc2cc3c(cc2Cl)C(=O)N(C)C3)nc2[nH]cc(C(F)(F)F)c12 [Example 135, 6-chloro-5-((4-(ethylamino)-5-(trifluoromethyl)-7H-pyrrolo[2,3-d]pyrimidine-2-yl)amino)-2-methyl isoindolin-1-one]	< 7.00
CNc1nc(Nc2ccc(C(=O)N3C[C@@H](C)O[C@@H](C)C3)cc2OC)nc2[nH]cc(C#N)c12 [Example 22, 2-((4-((2R,6S)-2,6-dimethylmorpholine-4-carbonyl)-2-methoxyphenyl)amino)-4-(methylamino)-7H-pyrrolo[2,3-d]pyrimidine-5-carbonitrile]	7.00 to 8.00
Cc1nn(C(C)(C)C#N)cc1Nc1nc(OC2(C)CC2)c2c(C#N)c[nH]c2n1 [Example 94, 2-((1-(2-cyanopropane-2-yl)-3-methyl-1H-pyrazole-4-yl)amino)-4-(1-methylcyclopropoxy)-7H-pyrrolo[2,3-d]pyrimidine-5-carbonitrile]	> 8.00
CCNc1nc(Nc2ccc(C(=O)N3CCC(N4CCN(C)CC4)CC3)cc2OC)nc2[nH]cc(C(F)(F)F)c12 [Example 106]	> 8.00
Cc1nn(C(C)(C)C#N)cc1Nc1nc(NC2(C)CC2)c2c(C#N)c[nH]c2n1 [Example 49, 2-((1-(2-cyanopropane-2-yl)-3-methyl-1H-pyrazole-4-yl)amino)-4-((1-methylcyclopropyl)amino)-7H-pyrrolo[2,3-d]pyrimidine-5-carbonitrile]	> 8.00
CCNc1nc(Nc2cc3c(cc2OC)C(=O)N(C)C3)nc2[nH]cc(C#N)c12 [Example 130, 4-(ethylamino)-2-((6-methoxy-2-methyl-1-oxoisoindol-5-yl)amino)-7H-pyrrolo[2,3-d]pyrimidine-5-carbonitrile]	> 8.00
CNc1nc(Nc2ccc(C(=O)N3CCOCC3)cc2OC)nc2[nH]cc(C(F)(F)F)c12 [Example 112, (3-methoxy-4-((4-(methylamino)-5-(trifluoromethyl)-7H-pyrrolo[2,3-d]pyrimidine-2-yl)amino)phenyl)(morpholino)methanone]	7.00 to 8.00
CNc1nc(Nc2ccc(C(=O)N3CCN(C)C[C@H]3C)cc2OC)nc2[nH]cc(C#N)c12 [Example 75, (R)-2-((4-(2,4-dimethylpiperazine-1-carbonyl)-2-methoxyphenyl)amino)-4-(methylamino)-7H-pyrrolo[2,3-d]pyrimidine-5-carbonitrile]	> 8.00
CNc1nc(Nc2cnn(C(C)C)c2C)nc2[nH]cc(C#N)c12 [Example 31, 6-((1-isopropyl-5-methyl-1H-pyrazole-4-yl)amino)-4-(methylamino)-1H-pyrrolo[2,3-b]pyrimidine-3-carbonitrile]	> 8.00
CCNc1nc(Nc2ccc(C(=O)N3CCOC(C)C3)cc2OC)nc2[nH]cc(C(F)(F)F)c12 (stereo in doubt) [Example 111, (S)-(4-((4-(ethylamino)-5-(trifluoromethyl)-7H-pyrrolo[2,3-d]pyrimidine-2-yl)amino)-3-methoxyphenyl)(2-methylmorpholino)methanone]	7.00 to 8.00
CCNc1nc(Nc2ccn(C)n2)nc2[nH]cc(C#N)c12 [Example 5, 4-(ethylamino)-2-((1-methyl-1H-pyrazole-3-yl)amino)-7H-pyrrolo[2,3-d]pyrimidine-5-carbonitrile]	> 8.00
CCNc1nc(Nc2ccc(C(=O)N3CCN(C)CC3)cc2OC)nc2[nH]cc(C(F)(F)F)c12 [Example 107, (4-((4-(ethylamino)-5-(trifluoromethyl)-7H-pyrrolo[2,3-d]pyrimidine-2-yl)amino)-3-methoxyphenyl)(4-methylpiperazine-1-yl)methanone]	> 8.00
CC1(Nc2nc(Nc3cnn([C@H]4CCN(C5COC5)C[C@@H]4F)c3)nc3[nH]cc(C#N)c23)CC1 [Example 54, 2-((1-((3S,4S)-3-fluoro-1-(oxetane-3-yl)piperidine-4-yl)-1H-pyrazole-4-yl)amino)-4-((methylcyclopropyl)amino)-7H-pyrrolo[2,3-d]pyrimidine-5-carbonitrile]	> 8.00
COc1cc(C(=O)N2C[C@@H](C)O[C@@H](C)C2)ccc1Nc1nc(OC2(C)CC2)c2c(C#N)c[nH]c2n1 [Example 100, 2-((4-((2R,6S)-2,6-dimethylmorpholine-4-carbonyl)-2-methoxyphenyl)amino)-4-(1-methylcyclopropoxy)-7H-pyrrolo[2,3-d]pyrimidine-5-carbonitrile]	7.00 to 8.00
CNc1nc(Nc2ccc(C(=O)N3CCO[C@@H](C)C3)cc2OC)nc2[nH]cc(C#N)c12 [Example 21, (S)-2-((2-methoxy-4-(2-methylmorpholine-4-carbonyl)phenyl)amino)-4-(methylamino)-7H-pyrrolo[2,3-d]pyrimidine-5-carbonitrile]	> 8.00
COc1cc(C(=O)N2CCO[C@H](C)C2)ccc1Nc1nc(NC2(C)CC2)c2c(C#N)c[nH]c2n1 [Example 42, (R)-2-((2-methoxy-4-(2-methylmorpholine-4-carbonyl)phenyl)amino)-4-((1-methylcyclopropyl)amino)-7H-pyrrolo[2,3-d]pyrimidine-5-carbonitrile]	> 8.00
CCNc1nc(Nc2ccc(C(=O)N3CCC(F)(F)CC3)cc2OC)nc2[nH]cc(C(F)(F)F)c12 [Example 110, (4,4-difluoropiperidine-1-yl)(4-((4-(ethylamino)-5-(trifluoromethyl)-7H-pyrrolo[2,3-d]pyrimidine-2-yl)amino)-3-methoxyphenyl)methanone]	< 7.00
CCNc1nc(Nc2cnn(C)c2)nc2[nH]cc(C#N)c12 [Example 4, 4-(ethylamino)-2-((1-methyl-1H-pyrazole-4-yl)amino)-7H-pyrrolo[2,3-d]pyrimidine-5-carbonitrile]	> 8.00

Continued, values first:

pIC50	SMILES
> 8.00	CCNc1nc(Nc2cc(F)c(C(=O)N3CCOCC3)cc2OC)nc2[nH]cc(C#N)c12 [Example 6, 4-(ethylamino)-2-((5-fluoro-2-methoxy-4-(morpholine-4-carbonyl)phenyl)amino)-7H-pyrrolo[2,3-d]pyrimidine-5-carbonitrile]
> 8.00	CCCNc1nc(Nc2ccc(C(=O)N3CCC(N4CCOCC4)CC3)cc2OC)nc2[nH]cc(C#N)c12 [Example 13, 2-((2-methoxy-4-(4-morpholinopiperidine-1-carbonyl)phenyl)amino)-4-(propylamino)-7H-pyrrolo[2,3-d]pyrimidine-5-carbonitrile]
> 8.00	COc1cc(C(=O)N2CCOCC2)c(F)cc1Nc1nc(NC2(C)CC2)c2c(C#N)c[nH]c2n1 [Example 37, 2-((5-fluoro-2-methoxy-4-(morpholine-4-carbonyl)phenyl)amino)-4-((1-methylcyclopropyl)amino)-7H-pyrrolo[2,3-d]pyrimidine-5-carbonitrile]
> 8.00	COc1cc(C(=O)N2CCOCC2)c(F)cc1Nc1nc(O[C@H]2CCOC2)c2c(C#N)c[nH]c2n1 [Example 92, (S)-2-((5-fluoro-2-methoxy-4-(morpholine-4-carbonyl)phenyl)amino)-4-((tetrahydrofuran-3-yl)oxy)-7H-pyrrolo[2,3 d]pyrimidine-5-carbonitrile]
> 8.00	COc1cc(C(=O)N2CCC(N3CCOCC3)CC2)ccc1Nc1nc(OC2CCOCC2)c2c(C#N)c[nH]c2n1 [Example 85]
> 8.00	COc1cc(C(=O)N2CCO[C@@H](C)C2)ccc1Nc1nc(OC2(C)CC2)c2c(C#N)c[nH]c2n1 [Example 99, (S)-2-((2-methoxy-4-(2-methylmorpholine-4-carbonyl)phenyl)amino)-4-(1-methylcyclopropoxy)-7H-pyrrolo[2,3-d]pyrimidine-5-carbonitrile]
> 8.00	CCNc1nc(Nc2ccc(C(=O)N3CCC(N4CCOCC4)CC3)cc2OC)nc2[nH]cc(C#N)c12 [Example 8, 4-(ethylamino)-2-((2-methoxy-4-(4-morpholinopiperidine-1-carbonyl)phenyl)amino)-7H-pyrrolo[2,3-d]pyrimidine-5-carbonitrile]
> 8.00	COc1cc(C(=O)N2CCOCC2)ccc1Nc1nc(NC2CC2)c2c(C(F)(F)F)c[nH]c2n1 [Example 118, (4-((4-(cyclopropylamino)-5-(trifluoromethyl)-7H-pyrrolo[2,3-d]pyrimidine-2-yl)amino)-3-methoxyphenyl)(morpholino)methanone]
> 8.00	COc1cc(C(=O)N2CCOCC2)ccc1Nc1nc(OC2CCOC2)c2c(C#N)c[nH]c2n1 (stereo not shown) [Example 86, 2-((2-methoxy-4-(morpholine-4-carbonyl)phenyl)amino)-4-((tetrahydrofuran-3-yl)oxy)-7H-pyrrolo[2,3-d]pyrimidine-5-carbonitrile]
7.00 to 8.00	COc1cc(C(=O)NC2CCN(C(C)C)CC2)c(F)cc1Nc1nc(NC2(C)CC2)c2c(C#N)c[nH]c2n1 [Example 82, 4-((5-cyano-4-((1-methylcyclopropyl)amino)-7H-pyrrolo[2,3-d]pyrimidine-2-yl)amino)-2-fluoro-N-(1-isopropylpiperidine-4-yl)-5-methoxybenzamide]
> 8.00	CCCNc1nc(Nc2ccc(C(=O)N3CCOCC3)cc2OC)nc2[nH]cc(C#N)c12 [Example 12, 2-((2-methoxy-4-(morpholine-4-carbonyl)phenyl)amino)-4-(propylamino)-7H-pyrrolo[2,3-d]pyrimidine-5-carbonitrile]
> 8.00	COc1cc(C(=O)N2CCOCC2)ccc1Nc1nc(NC2CC2)c2c(C#N)c[nH]c2n1 [Example 16, 4-(cyclopropylamino)-2-((2-methoxy-4-(morpholine-4-carbonyl)phenyl)amino)-7H-pyrrolo[2,3-d]pyrimidine-5-carbonitrile]
> 8.00	CCNc1nc(Nc2cc(F)c(C(=O)N3CCN(C)C[C@H]3C)cc2OC)nc2[nH]cc(C#N)c12 [Example 79, (R)-2-((4-(2,4-dimethylpiperazine-1-carbonyl)-5-fluoro-2-methoxyphenyl)amino)-4-(ethylamino)-7H-pyrrolo[2,3-d]pyrimidine-5-carbonitrile]
